Among the data in ChEMBL document CHEMBL6127120, “Antiplasmodial and Insecticidal Activities of Third-Generation Ivermectin Hybrids” (J Med Chem, 2024) are Activity, IC50 and IC90 values, retold here.

Type in all cases: functional, organism-based
Assay [1] relates to Anopheles stephensi. Put plainly: Anti-insecticidal activity against female Anopheles stephensi mosquitoes assessed as mosquito survival treated after 18 to 22 hrs starvation using 70 ng/ml compound containing human O+ blood meal via artificial membrane measured after 14 days relative to control.
Assay [2] has as its system Plasmodium falciparum. As to the kind of experiment: Anti-plasmodial activity against erythrocytic stage Plasmodium falciparum NF54 in […] measured after 48 hrs by SYBR green dye based flow cytometry. Conditions: NF54, 48 h. Background: Flow cytometry measures light scatter and fluorescence of single cells or particles in a stream.
The test system of assay [3] is Plasmodium berghei. As to the kind of experiment: Anti-plasmodial activity against pre-erythrocytic stage Plasmodium berghei infected in human Huh-7 cells at 10 to 500 nM by bioluminescence assay. Conditions: dose 10-500 nM.
Assay [4] relates to Plasmodium berghei. As to the kind of experiment: Anti-plasmodial activity against pre-erythrocytic stage Plasmodium berghei infected in human Huh-7 cells by bioluminescence assay.
In assay [5] the test system is Plasmodium berghei. As to the kind of experiment: In vivo antiplasmodial activity against Balb/c mouse infected with luciferase expressing Plasmodium berghei infected in red blood cells assessed as parasitemia in blood by measuring bioluminescence at 2 mg/kg, oral gavage 4 consecutive treatment measured upto day 8. Conditions: time 8.0 day.
Assay [6] deals with Plasmodium berghei. Put plainly: Anti-plasmodial activity against hepatic stage GFP-expressing Plasmodium berghei infected in human Huh-7 cells assessed as parasite invasion of host cells treated at IC90 measured after 48 hrs of post-infection by flow cytometry.
The subject of assay [7] is Plasmodium berghei. Put plainly: Anti-plasmodial activity against hepatic stage GFP-expressing Plasmodium berghei infected in human Huh-7 cells assessed as parasite invasion of host cells treated at IC90 measured after 2 hrs of post-infection by flow cytometry.
Assay [8] concerns Plasmodium berghei. Put plainly: In vivo antiplasmodial activity against Balb/c mouse infected with luciferase expressing Plasmodium berghei infected in red blood cells assessed as parasitemia in blood by measuring bioluminescence at 50 mg/kg, oral gavage 4 consecutive treatment measured upto day 8. Conditions: time 8.0 day.

Calls of active or inactive are those of the source. The calls are words filed in the database; no cut-off is given here.

A word on the IC50: it is the point on the concentration scale where inhibition reaches its midpoint. Lower therefore signals inhibition by little substance. For the compound `CCC(C)[C@H]1O[C@]2(CC[C@@H]1C)C[C@@H]1C[C@@H](C/C=C(\C)[C@@H](O[C@H]3C[C@H](OC)[C@@H](O[C@H]4C[C@H](OO)[C@@H](OC(=O)CCl)[C@H](C)O4)[C@H](C)O3)[C@@H](C)/C=C/C=C3\CO[C@@H]4[C@H](O)C(C)=C[C@@H](C(=O)O1)[C@]34O)O2` (stereo not given in full), in assay [1], the result was Active. Also, the IC50 was 300 nM in assay [2] and 2610 nM in assay [4]. For the same compound, the Activity result in assay [3] was “Dose-Dependent Effect”.
As for `CCC(C)[C@H]1O[C@]2(CC[C@@H]1C)C[C@@H]1C[C@@H](C/C=C(\C)[C@@H](O)[C@@H](C)/C=C/C=C3\CO[C@@H]4[C@H](O)C(CO)=C[C@@H](C(=O)O1)[C@]34O)O2` (stereo not given in full), in assay [1], the outcome was Active. For the same compound, the outcome in assay [3] was inactive. This compound displayed an IC50 in assay [4] of 1640 nM.
`CCC(C)[C@H]1O[C@]2(CC[C@@H]1C)C[C@@H]1C[C@@H](C/C=C(\C)[C@@H](O[C@H]3C[C@H](OC)[C@@H](OC(=O)CCl)[C@H](C)O3)[C@@H](C)/C=C/C=C3\CO[C@@H]4[C@H](O)C(C)=C[C@@H](C(=O)O1)[C@]34O)O2` (stereo not given in full): the outcome in assay [3] was inactive.
One may read the IC90 as the concentration at which the effect reaches the 90% level. High values mean weaker potency, low ones greater potency. `CCOC(=O)c1c(C)nc(OCc2cn(CC(=O)O[C@H]3[C@H](C)O[C@@H](O[C@@H]4/C(C)=C/C[C@@H]5C[C@@H](C[C@]6(CC[C@H](C)[C@@H](C(C)CC)O6)O5)OC(=O)[C@@H]5C=C(C)[C@@H](O)[C@H]6OC/C(=C\C=C\[C@@H]4C)[C@]65O)C[C@@H]3OC)nn2)nc1-c1cc(OC)c(OC)cc1[N+](=O)[O-]` (stereo not given in full): the outcome in assay [5] and in assay [7] was inactive. For the same compound, in assay [6], the result was Active. For the same compound, the IC50 in assay [2] was determined as 110 nM; in assay [4], 1540 nM. For the same compound, the Activity entry in assay [3] is “Dose-Dependent Effect”. Further, the IC90 in assay [4] worked out at 3.18 µM.
With `CCC(C)[C@H]1O[C@]2(CC[C@@H]1C)C[C@@H]1C[C@@H](C/C=C(\C)[C@@H](O[C@H]3C[C@H](OC)[C@@H](O[C@H]4C[C@H](OO)[C@@H](OC(=O)CNC5CCNCC5)[C@H](C)O4)[C@H](C)O3)[C@@H](C)/C=C/C=C3\CO[C@@H]4[C@H](O)C(C)=C[C@@H](C(=O)O1)[C@]34O)O2` (stereo not given in full), the outcome in assay [1] and in assay [3] was inactive. Inhibition in assay [4] was half-maximal at 5800 nM (IC50).
With `CCC(C)[C@H]1O[C@]2(CC[C@@H]1C)C[C@@H]1C[C@@H](C/C=C(\C)[C@@H](O[C@H]3C[C@H](OC)[C@@H](O)[C@H](C)O3)[C@@H](C)/C=C/C=C3\CO[C@@H]4[C@H](O)C(C)=C[C@@H](C(=O)O1)[C@]34O)O2` (stereo not given in full), in assay [1], the outcome was Active. For the same compound, the result in assay [3] was inactive. Further, the half-maximal inhibitory concentration (IC50) in assay [4] is 5630 nM.
On to `CCC(C)[C@H]1O[C@]2(CC[C@@H]1C)C[C@@H]1C[C@@H](C/C=C(\C)[C@@H](O[C@H]3C[C@H](OC)[C@@H](O)[C@H](C)O3)[C@@H](C)/C=C/C=C3\CO[C@@H]4[C@H](O[Si](C)(C)C(C)(C)C)C(C)=C[C@@H](C(=O)O1)[C@]34O)O2` (stereo not given in full), for which the IC50 in assay [2] stood at 720 nM; in assay [4] it was 2910 nM. In assay [3], the Activity entry was “Dose-Dependent Effect”.
With `CCC(C)[C@H]1O[C@]2(CC[C@@H]1C)C[C@@H]1C[C@@H](C/C=C(\C)[C@@H](O[C@H]3C[C@H](OC)[C@@H](O[C@H]4C[C@H](OO)[C@@H](OC(=O)CCl)[C@H](C)O4)[C@H](C)O3)[C@@H](C)/C=C/C=C3\CO[C@@H]4[C@H](O[Si](C)(C)C(C)(C)C)C(C)=C[C@@H](C(=O)O1)[C@]34O)O2` (stereo not given in full), in assay [3], the result was inactive.
In the case of `CCC(C)[C@H]1O[C@]2(CC[C@@H]1C)C[C@@H]1C[C@@H](C/C=C(\C)[C@@H](O[C@H]3C[C@H](OC)[C@@H](O[C@H]4C[C@H](OO)[C@@H](O)[C@H](C)O4)[C@H](C)O3)[C@@H](C)/C=C/C=C3\CO[C@@H]4[C@H](O[Si](C)(C)C(C)(C)C)C(C)=C[C@@H](C(=O)O1)[C@]34O)O2` (stereo not given in full), the IC50 in assay [2] turned out to be 700 nM; in assay [4], 3690 nM. Further, in assay [3], the Activity entry is “Dose-Dependent Effect”.
Consider `CCC(C)[C@H]1O[C@]2(CC[C@@H]1C)C[C@@H]1C[C@@H](C/C=C(\C)[C@@H](O[C@H]3C[C@H](OC)[C@@H](OC(=O)CCl)[C@H](C)O3)[C@@H](C)/C=C/C=C3\CO[C@@H]4[C@H](O[Si](C)(C)C(C)(C)C)C(C)=C[C@@H](C(=O)O1)[C@]34O)O2` (stereo not given in full), for which, in assay [3], the result was inactive.
Take `CCOC(=O)c1c(C)nc(OCc2cn(CC(=O)O[C@H]3[C@H](C)O[C@@H](O[C@H]4[C@H](C)O[C@@H](O[C@@H]5/C(C)=C/C[C@@H]6C[C@@H](C[C@]7(CC[C@H](C)[C@@H](C(C)CC)O7)O6)OC(=O)[C@@H]6C=C(C)[C@@H](O)[C@H]7OC/C(=C\C=C\[C@@H]5C)[C@]76O)C[C@@H]4OC)C[C@@H]3OC)nn2)nc1-c1cc(OC)c(OC)cc1[N+](=O)[O-]` (stereo not given in full): the outcome in assay [5] and in assay [7] was inactive. Further, in assay [6], the outcome was Active. Further, the IC50 in assay [2] was found to be 30 nM; in assay [4], 2330 nM. The Activity entry in assay [3] was “Dose-Dependent Effect”. The same compound came in with an IC90 in assay [4] of 4.28 µM.
As for `CCN(CC)CCCC(C)Nc1ccnc2cc(Cl)ccc12` (stereo not given), in assay [8], the result was Active.
On to `CCC(C)[C@H]1O[C@]2(CC[C@@H]1C)C[C@@H]1C[C@@H](C/C=C(\C)[C@@H](O[C@H]3C[C@H](OC)[C@@H](OC(=O)CNC4CCNCC4)[C@H](C)O3)[C@@H](C)/C=C/C=C3\CO[C@@H]4[C@H](O)C(C)=C[C@@H](C(=O)O1)[C@]34O)O2` (stereo not given in full), for which the outcome in assay [1] was Active. For the same compound, in assay [3], the result was inactive. Also, in assay [4], 5700 nM corresponded to half-maximal inhibition (IC50).
As to `CCC(C)[C@H]1O[C@]2(CC[C@@H]1C)C[C@@H]1C[C@@H](C/C=C(\C)[C@@H](O[C@H]3C[C@H](OC)[C@@H](O[C@H]4C[C@H](OO)[C@@H](O)[C@H](C)O4)[C@H](C)O3)[C@@H](C)/C=C/C=C3\CO[C@@H]4[C@H](O)C(C)=C[C@@H](C(=O)O1)[C@]34O)O2` (stereo not given in full), in assay [2], the IC50 was 460 nM. In assay [3], the Activity result was “Dose-Dependent Effect”. In assay [4], half-maximal inhibition (IC50) required 1500 nM and the 90% effect level (IC90) was put at 3.1 µM.
Take `CCC(C)[C@H]1O[C@]2(CC[C@@H]1C)C[C@@H]1C[C@@H](C/C=C(\C)[C@@H](O[C@H]3C[C@H](OC)[C@@H](O[C@H]4C[C@H](OO)[C@@H](O)[C@H](C)O4)[C@H](C)O3)[C@@H](C)/C=C/C=C3\CO[C@@H]4[C@H](O)C(CO)=C[C@@H](C(=O)O1)[C@]34O)O2` (stereo not given in full): in assay [1], the result was Active. Moreover, in assay [3], the result was inactive. In addition, half-maximal inhibition in assay [4] (IC50) was put at 2220 nM.
The corresponding values for `CCC(C)[C@H]1O[C@]2(CC[C@@H]1C)C[C@@H]1C[C@@H](C/C=C(\C)[C@@H](O[C@H]3C[C@H](OC)[C@@H](O)[C@H](C)O3)[C@@H](C)/C=C/C=C3\CO[C@@H]4[C@H](O)C(CO)=C[C@@H](C(=O)O1)[C@]34O)O2` (stereo not given in full) are “Active”, “inactive” and 2600 nM.
